Source: PubChem BioAssay AID248 (DTP/NCI, 2004)
Where “and” joins values, the source holds several entries; their conditions need not be identical. Identical values can stand only once. Toxic doses and inconclusive results are not listed. Rule as the data show it: active = T/C of 150% or more; inactive = T/C below 125%.

Test system: L1210 leukemia ip in BDF1 mice, survival T/C
Assay: NCI In Vivo Anticancer Drug Screen. Data for tumor model L1210 Leukemia (intraperitoneal) in B6D2F1 (BDF1) mice
Settings: endpoint: mean survival time, higher = longer survival
In short: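 Mice bearing the transplanted tumor received compound or vehicle. Survival of the treated group was divided by that of the vehicle-treated control group to give the ratio.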

[1] = dose: 50.0 mg/kg/injection, schedule: Q01DX009 (ip), vehicle: saline with Tween-80
[2] = dose: 100.0 mg/kg/injection, schedule: Q01DX009 (ip), vehicle: saline with Tween-80
[3] = dose: 200.0 mg/kg/injection, schedule: Q01DX009 (ip), vehicle: saline with Tween-80
[4] = dose: 100.0 mg/kg/injection, schedule: Q04DX003 (ip), vehicle: Klucel (hydroxypropylcellulose) (HPC)
[5] = dose: 200.0 mg/kg/injection, schedule: Q04DX003 (ip), vehicle: Klucel (hydroxypropylcellulose) (HPC)
[6] = dose: 400.0 mg/kg/injection, schedule: Q04DX003 (ip), vehicle: Klucel (hydroxypropylcellulose) (HPC)
[7] = dose: 100.0 mg/kg/injection, schedule: Q01DX001 (ip), vehicle: saline
[8] = dose: 200.0 mg/kg/injection, schedule: Q01DX001 (ip), vehicle: saline
[9] = dose: 400.0 mg/kg/injection, schedule: Q01DX001 (ip), vehicle: saline
[10] = dose: 100.0 mg/kg/injection, schedule: Q04DX003 (ip), vehicle: saline with Tween-80
[11] = dose: 200.0 mg/kg/injection, schedule: Q04DX003 (ip), vehicle: saline with Tween-80
[12] = dose: 400.0 mg/kg/injection, schedule: Q04DX003 (ip), vehicle: saline with Tween-80
[13] = dose: 100.0 mg/kg/injection, schedule: Q01DX001 (ip), vehicle: carboxymethylcellulose (CMC)
[14] = dose: 400.0 mg/kg/injection, schedule: Q01DX009 (ip), vehicle: saline with Tween-80
[15] = dose: 25.0 mg/kg/injection, schedule: Q01DX009 (ip), vehicle: saline with Tween-80
[16] = dose: 100.0 mg/kg/injection, schedule: Q01DX001 (ip), vehicle: saline with Tween-80
[17] = dose: 200.0 mg/kg/injection, schedule: Q01DX001 (ip), vehicle: saline with Tween-80
[18] = dose: 400.0 mg/kg/injection, schedule: Q01DX001 (ip), vehicle: saline with Tween-80
[19] = dose: 200.0 mg/kg/injection, schedule: Q01DX001 (ip), vehicle: carboxymethylcellulose (CMC)
[20] = dose: 400.0 mg/kg/injection, schedule: Q01DX001 (ip), vehicle: carboxymethylcellulose (CMC)

Measured: T/C

O=P(NCCO)(OCC(Br)CBr)OCC(Br)CBr (centres undefined)
inactive: [1] 94 % of control | [2] 102 % of control | [3] 98 % of control

Cc1ccc(C)c(NC(=O)Nc2cccc(Cl)c2)c1
inactive: dose: 100.0 mg/kg/injection, schedule: Q01DX009 (ip), vehicle: Klucel (hydroxypropylcellulose) (HPC) 93 % of control | [4] 92 % of control | dose: 200.0 mg/kg/injection, schedule: Q01DX009 (ip), vehicle: Klucel (hydroxypropylcellulose) (HPC) 96 % of control | [5] 89 % of control | dose: 400.0 mg/kg/injection, schedule: Q01DX009 (ip), vehicle: Klucel (hydroxypropylcellulose) (HPC) 91 % of control | [6] 87 % of control

C/C(CC(C)C)=N/O
inactive: [7] 95 % of control | [8] 97 % of control | [9] 92 % of control

CCOC(=O)CCCc1ccccc1
inactive: [10] 107 % of control | [11] 90 % of control | [12] 93 % of control

Nc1ccc(Cc2ccncc2)cc1
inactive: dose: 25.0 mg/kg/injection, schedule: Q01DX001 (ip), vehicle: carboxymethylcellulose (CMC) 105 % of control | dose: 25.0 mg/kg/injection, schedule: Q01DX009 (ip), vehicle: carboxymethylcellulose (CMC) 102 % of control and 92 % of control | dose: 25.0 mg/kg/injection, schedule: Q04DX002 (ip), vehicle: carboxymethylcellulose (CMC) 94 % of control | dose: 25.0 mg/kg/injection, schedule: Q04DX003 (ip), vehicle: carboxymethylcellulose (CMC) 97 % of control | dose: 50.0 mg/kg/injection, schedule: Q01DX001 (ip), vehicle: carboxymethylcellulose (CMC) 102 % of control | dose: 50.0 mg/kg/injection, schedule: Q01DX009 (ip), vehicle: carboxymethylcellulose (CMC) 95 % of control and 98 % of control | dose: 50.0 mg/kg/injection, schedule: Q04DX002 (ip), vehicle: carboxymethylcellulose (CMC) 93 % of control and 103 % of control | dose: 50.0 mg/kg/injection, schedule: Q04DX003 (ip), vehicle: carboxymethylcellulose (CMC) 100 % of control | [13] 103 % of control | dose: 100.0 mg/kg/injection, schedule: Q01DX009 (ip), vehicle: carboxymethylcellulose (CMC) 94 % of control and 103 % of control | dose: 200.0 mg/kg/injection, schedule: Q04DX002 (ip), vehicle: carboxymethylcellulose (CMC) 94 % of control

COc1ccc(/C=C/C(=O)c2ccc3c(c2)OCO3)cc1OC
inactive: [2] 101 % of control | [3] 94 % of control | [14] 95 % of control

Nc1ncnc2c1ncn2C1OC(COC2C(CO)OC(OC(C(=O)O)C(O)C(OP(=O)(O)O)C(O)C(=O)O)C(O)C2O)C(O)C1O (centres undefined)
inactive: dose: 0.25 mg/kg/injection, schedule: Q04DX002 (ip), vehicle: saline + alcohol 91 % of control | dose: 0.5 mg/kg/injection, schedule: Q04DX002 (ip), vehicle: saline + alcohol 94 % of control | dose: 1.0 mg/kg/injection, schedule: Q04DX002 (ip), vehicle: saline + alcohol 98 % of control

O=[N+]([O-])c1sc2ccccc2c1/C=C/c1csc2ccccc12
inactive: [7] 87 % of control | [8] 91 % of control | [9] 97 % of control

N#Cc1ccc(Nc2ccc(C#N)cc2)cc1
inactive: [15] 105 % of control | [1] 94 % of control | [2] 94 % of control | [10] 96 % of control | [11] 96 % of control | [12] 91 % of control

Cc1ccc(S(=O)(=O)N/N=C(/c2ccccc2)c2ccsc2C)cc1
inactive: [16] 98 % of control | [17] 88 % of control | [18] 92 % of control

Cc1ccc(N)cc1CO
inactive: dose: 100.0 mg/kg/injection, schedule: Q01DX001 (ip), vehicle: Klucel (hydroxypropylcellulose) (HPC) 94 % of control | [4] 94 % of control | dose: 200.0 mg/kg/injection, schedule: Q01DX001 (ip), vehicle: Klucel (hydroxypropylcellulose) (HPC) 92 % of control | [5] 103 % of control | dose: 400.0 mg/kg/injection, schedule: Q01DX001 (ip), vehicle: Klucel (hydroxypropylcellulose) (HPC) 100 % of control | [6] 94 % of control

CCOP(=O)(CI)Oc1ccc([N+](=O)[O-])cc1 (centres undefined)
inactive: dose: 0.5 mg/kg/injection, schedule: Q01DX001 (ip), vehicle: saline 100 % of control | dose: 1.0 mg/kg/injection, schedule: Q01DX001 (ip), vehicle: saline 102 % of control | dose: 2.0 mg/kg/injection, schedule: Q01DX001 (ip), vehicle: saline 100 % of control

CC(CCC(=O)O)C1CCC2C3CCC4CC(OC=O)CCC4(C)C3CC(=O)C12C (centres undefined)
inactive: [16] 98 % of control | [17] 95 % of control | [18] 101 % of control

Nc1nc(N)c(N=C/C=C\c2ccc([N+](=O)[O-])cc2)c(-c2ccccc2)n1
inactive: dose: 50.0 mg/kg/injection, schedule: Q01DX001 (ip), vehicle: saline 113 % of control | [7] 107 % of control | [8] 91 % of control | [9] 103 % of control

ClB(Cl)c1ccc(Br)cc1
inactive: [7] 97 % of control | [8] 86 % of control | [9] 95 % of control

CCOC(=O)C1(C)CCCCC1=O (centres undefined)
inactive: dose: 100.0 mg/kg/injection, schedule: Q01DX009 (ip), vehicle: saline sonified 110 % of control | dose: 200.0 mg/kg/injection, schedule: Q01DX009 (ip), vehicle: saline sonified 96 % of control | dose: 400.0 mg/kg/injection, schedule: Q01DX009 (ip), vehicle: saline sonified 105 % of control

CC1(C)N=C(N)N=C(N)N1c1cccc(CCCc2ccccc2)c1
inactive: dose: 1.56 mg/kg/injection, schedule: Q01DX001 (ip), vehicle: saline 98 % of control | dose: 3.12 mg/kg/injection, schedule: Q01DX001 (ip), vehicle: saline 91 % of control | dose: 6.25 mg/kg/injection, schedule: Q01DX001 (ip), vehicle: saline 88 % of control | dose: 25.0 mg/kg/injection, schedule: Q01DX001 (ip), vehicle: saline 89 % of control

CCCCCCCCCCCCC1CCCC(C)C1 (centres undefined)
inactive: [15] 89 % of control | [1] 99 % of control | [2] 92 % of control | dose: 100.0 mg/kg/injection, schedule: Q04DX002 (ip), vehicle: saline with Tween-80 105 % of control and 90 % of control | dose: 200.0 mg/kg/injection, schedule: Q04DX002 (ip), vehicle: saline with Tween-80 104 % of control and 90 % of control | [14] 90 % of control | dose: 800.0 mg/kg/injection, schedule: Q04DX002 (ip), vehicle: saline with Tween-80 97 % of control

Nc1ccncn1
inactive: dose: 100.0 mg/kg/injection, schedule: Q01DX005 (ip), vehicle: saline 94 % of control | dose: 100.0 mg/kg/injection, schedule: Q01DX009 (ip), vehicle: saline 99 % of control | dose: 100.0 mg/kg/injection, schedule: Q04DX002 (ip), vehicle: saline 96 % of control | dose: 200.0 mg/kg/injection, schedule: Q01DX005 (ip), vehicle: saline 97 % of control | dose: 200.0 mg/kg/injection, schedule: Q01DX009 (ip), vehicle: saline 96 % of control | dose: 200.0 mg/kg/injection, schedule: Q04DX002 (ip), vehicle: saline 96 % of control | dose: 400.0 mg/kg/injection, schedule: Q01DX005 (ip), vehicle: saline 105 % of control | dose: 400.0 mg/kg/injection, schedule: Q01DX009 (ip), vehicle: saline 96 % of control | dose: 400.0 mg/kg/injection, schedule: Q04DX002 (ip), vehicle: saline 100 % of control

O=C(NC1CCCCC1)c1ccc2ccccc2c1O
inactive: [11] 98 % of control | [12] 95 % of control

CCOC(=O)c1cnc(C)nc1Nc1ccccc1F
inactive: [4] 105 % of control | [5] 104 % of control

Cc1ccc2sc(C)cc(=O)c2c1
inactive: [13] 100 % of control | [19] 100 % of control | [20] 98 % of control

CCN1CCC(S(=O)(=O)CCS(=O)(=O)C2CCN(CC)C2)C1 (centres undefined)
inactive: [13] 95 % of control | [19] 94 % of control | [20] 94 % of control

CCOC(=S)Nc1ccccc1[N+](=O)[O-]
inactive: dose: 100.0 mg/kg/injection, schedule: Q04DX002 (ip), vehicle: gum acacia 102 % of control | dose: 200.0 mg/kg/injection, schedule: Q04DX002 (ip), vehicle: gum acacia 105 % of control | dose: 400.0 mg/kg/injection, schedule: Q04DX002 (ip), vehicle: gum acacia 102 % of control
